Source: PMC10188607, “Quaternization of high molecular weight chitosan for increasing intestinal drug absorption using Caco-2 cells as an in vitro intestinal model” (Scientific Reports, 2023)

How the values were obtained:
[1] = tested on: Caco-2 monolayers; assay: TEER measurement of tight junction integrity in Caco-2 monolayers; format: cell-based, Human; details: inhibitor pre-incubated 30 min; for effect of inhibitor on 600-HPTChC65-mediated TEER reduction / tight junction opening: 0.005% (w/v) 600-HPTChC65, 2-h treatment; for effect of inhibitor on chitosan-mediated TEER reduction / tight junction opening: 0.005% (w/v) 600 kDa chitosan, 2-h treatment
Method: Human colon adenocarcinoma Caco-2 cell line was obtained from the American Type Culture Collection (Manassas, VA, USA). The cells were maintained in complete medium (CM; Dulbeco's modified Eagle's medium supplemented with 10% (v/v) fetal bovine serum, 100 units/mL penicillin, 100 µg/mL streptomycin, 1% (v/v) non-essential amino acids and 2 mM L-glutamine) at 37 °C in a humidified atmosphere of 5% CO2. Cells were grown at a density of 6 × 10^4 and 1.5 × 10^5 cells/cm^2 on a transwell insert (0.4 µm pore size; Corning Life Sciences, Tewksbury, MA, USA) for 21 days and 14 days in paracellular and transcellular experiments, respectively. At the start of each experiment, the integrity of the Caco-2 monolayer was assessed by measurement of the transepithelial electrical resistance (TEER), using a chopstick-like electrode connected to a Millicell-ERS® (Millipore, Bedford, MA, USA). Cell monolayers with a TEER value of greater than 300 Ω cm^2 were used in each experiment.
The 21 day-aged Caco-2 monolayers were incubated with transport buffers, i.e., 10 mM MES-HBSS, pH 6.5 on the apical side (the donor compartment) and 25 mM HEPES-HBSS, pH 7.4 on the basolateral side (the receiver compartment) for 30 min at 37 °C. Subsequently, the test chitosan in 1% (w/v) acetic acid was added to the apical side and incubated at 37 °C on an orbital shaker for 4 h. To investigate the tight junction signaling pathway, the monolayers were incubated with either ML-7, RO-318220 or genistein for 30 min at 37 °C prior to addition of the test chitosan. The TEER values were monitored at the indicated time points during the treatment period.
For the measurement of tight junction recovery, each monolayer was incubated with the test chitosan for 1 h prior to replacement with CM for another 24 h in a CO2 incubator at 37 °C. The TEER value was measured at the indicated time points during the 24-h chitosan withdrawal period.

[2] = target: recombinant human P-gp membranes (Homo sapiens, UniProt P08183)
Chain of recombinant human P-gp membranes (P08183 whole entry): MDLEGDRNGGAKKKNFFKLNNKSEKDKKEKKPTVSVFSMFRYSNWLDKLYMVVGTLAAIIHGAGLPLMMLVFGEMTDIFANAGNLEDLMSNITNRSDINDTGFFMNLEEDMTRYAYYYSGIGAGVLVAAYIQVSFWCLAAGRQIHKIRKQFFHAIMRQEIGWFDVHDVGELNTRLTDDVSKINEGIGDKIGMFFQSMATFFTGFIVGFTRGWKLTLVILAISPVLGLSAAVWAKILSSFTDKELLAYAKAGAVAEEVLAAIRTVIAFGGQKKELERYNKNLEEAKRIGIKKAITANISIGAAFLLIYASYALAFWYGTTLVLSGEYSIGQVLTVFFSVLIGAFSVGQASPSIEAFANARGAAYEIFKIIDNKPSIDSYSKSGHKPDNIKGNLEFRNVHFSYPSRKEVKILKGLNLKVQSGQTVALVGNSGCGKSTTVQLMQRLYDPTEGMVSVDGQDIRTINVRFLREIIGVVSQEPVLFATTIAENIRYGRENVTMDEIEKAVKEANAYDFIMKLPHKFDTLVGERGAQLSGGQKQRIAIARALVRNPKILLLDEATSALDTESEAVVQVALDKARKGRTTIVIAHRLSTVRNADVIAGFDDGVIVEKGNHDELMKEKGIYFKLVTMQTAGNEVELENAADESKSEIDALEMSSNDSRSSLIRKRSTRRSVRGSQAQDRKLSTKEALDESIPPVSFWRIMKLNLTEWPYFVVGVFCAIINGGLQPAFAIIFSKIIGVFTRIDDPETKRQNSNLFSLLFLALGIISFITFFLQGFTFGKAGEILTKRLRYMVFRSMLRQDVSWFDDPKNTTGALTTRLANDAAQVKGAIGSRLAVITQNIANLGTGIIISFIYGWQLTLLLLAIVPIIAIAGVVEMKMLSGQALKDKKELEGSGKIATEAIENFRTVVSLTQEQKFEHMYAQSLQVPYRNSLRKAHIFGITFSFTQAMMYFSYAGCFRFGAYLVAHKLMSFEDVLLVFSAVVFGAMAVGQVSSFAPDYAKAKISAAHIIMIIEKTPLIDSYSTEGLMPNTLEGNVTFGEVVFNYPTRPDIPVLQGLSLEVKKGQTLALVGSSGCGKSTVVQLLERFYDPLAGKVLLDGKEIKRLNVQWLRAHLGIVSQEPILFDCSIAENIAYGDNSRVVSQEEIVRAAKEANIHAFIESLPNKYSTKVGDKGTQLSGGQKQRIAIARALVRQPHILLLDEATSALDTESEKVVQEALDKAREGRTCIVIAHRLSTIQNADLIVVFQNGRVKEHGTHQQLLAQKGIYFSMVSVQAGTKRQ
Method: Effect of 600-HPTChC65 on P-gp ATPase activity was determined in recombinant human P-gp membranes with the use of the P-gp-Glo™ assay (Promega, Madison, Wisconsin), according to the manufacturer’s instruction.

## O=S(=O)(c1cccc2c(I)cccc12)N1CCCNCC1 [ML-7]
[1]
  effect of inhibitor on 600-HPTChC65-mediated TEER reduction / tight junction opening: did not prevent
  effect of inhibitor on chitosan-mediated TEER reduction / tight junction opening: partially prevent

## Cn1cc(C2=C(c3cn(CCCSC(=N)N)c4ccccc34)C(=O)NC2=O)c2ccccc21 [RO-318220]
[1]
  effect of inhibitor on 600-HPTChC65-mediated TEER reduction / tight junction opening: did not prevent
  effect of inhibitor on chitosan-mediated TEER reduction / tight junction opening: no significant effect

## O=c1c(-c2ccc(O)cc2)coc2cc(O)cc(O)c12 [genistein]
[1]
  effect of inhibitor on 600-HPTChC65-mediated TEER reduction / tight junction opening: did not prevent
  effect of inhibitor on chitosan-mediated TEER reduction / tight junction opening: no significant effect

## N-(2-hydroxypropyl)-3-trimethylammonium chitosan chloride [600-HPTChC65]
[2]
  P-gp ATPase activity (change in luminescence signal): increased ATPase activity
